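Compound exposure: 48 hours, 5 concentrations, 96-well plates. At the TGI there is no net growth.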
Assays:
Experiment in all cases: DTP human tumour cell line panel, 48 h
NCI-H460 lung = system: NCI-H460 lung
NCI-H522 lung = system: NCI-H522 lung
UACC-62 melanoma = system: UACC-62 melanoma
MALME-3M melanoma = system: MALME-3M melanoma
HCT-15 colon = system: HCT-15 colon
UACC-257 melanoma = system: UACC-257 melanoma
K-562 leukemia = system: K-562 leukemia
NCI-H226 lung = system: NCI-H226 lung
SW-620 colon = system: SW-620 colon
SK-MEL-2 melanoma = system: SK-MEL-2 melanoma
KM12 colon = system: KM12 colon
SNB-75 CNS = system: SNB-75 CNS
SN12C renal = system: SN12C renal
SK-MEL-5 melanoma = system: SK-MEL-5 melanoma
U251 CNS = system: U251 CNS
SNB-19 CNS = system: SNB-19 CNS
DMS 273 small cell lung = system: DMS 273 small cell lung
NCI-H23 lung = system: NCI-H23 lung
SK-OV-3 ovarian = system: SK-OV-3 ovarian
RPMI-8226 leukemia = system: RPMI-8226 leukemia
HOP-18 NSCLC = system: HOP-18 NSCLC
IGROV1 ovarian = system: IGROV1 ovarian
HCC-2998 colon = system: HCC-2998 colon
DMS 114 small cell lung = system: DMS 114 small cell lung
CCRF-CEM leukemia = system: CCRF-CEM leukemia
OVCAR-3 ovarian = system: OVCAR-3 ovarian
CAKI-1 renal = system: CAKI-1 renal
LXFL 529 NSCLC = system: LXFL 529 NSCLC
KM20L2 colon = system: KM20L2 colon
M14 melanoma = system: M14 melanoma
DLD-1 colon = system: DLD-1 colon
SNB-78 CNS = system: SNB-78 CNS
RXF 393 renal = system: RXF 393 renal
A498 renal = system: A498 renal
UO-31 renal = system: UO-31 renal
786-0 renal = system: 786-0 renal
EKVX NSCLC = system: EKVX NSCLC
OVCAR-4 ovarian = system: OVCAR-4 ovarian
HCT-116 colon = system: HCT-116 colon
SK-MEL-28 melanoma = system: SK-MEL-28 melanoma
MOLT-4 leukemia = system: MOLT-4 leukemia
A549 NSCLC = system: A549 NSCLC
SF-295 CNS = system: SF-295 CNS
HL-60(TB) leukemia = system: HL-60(TB) leukemia
COLO 205 colon = system: COLO 205 colon
OVCAR-5 ovarian = system: OVCAR-5 ovarian
SF-268 CNS = system: SF-268 CNS
RXF-631 renal = system: RXF-631 renal
TK-10 renal = system: TK-10 renal
HOP-92 NSCLC = system: HOP-92 NSCLC
HOP-62 NSCLC = system: HOP-62 NSCLC
OVCAR-8 ovarian = system: OVCAR-8 ovarian
M19-MEL melanoma = system: M19-MEL melanoma
XF 498 CNS = system: XF 498 CNS
LOX IMVI melanoma = system: LOX IMVI melanoma
HT29 colon = system: HT29 colon
ACHN renal = system: ACHN renal
SF-539 CNS = system: SF-539 CNS
SR leukemia = system: SR leukemia

In the case of `COc1cc(Nc2cnc3ccc(N)cc3n2)cc(OC)c1OC`, the TGI (NCI-H460 lung) is reported as > 100 µM, the TGI (NCI-H522 lung) is reported as > 100 µM and the TGI (UACC-62 melanoma) is reported as > 100 µM. The TGI (MALME-3M melanoma) was > 100 µM, the TGI (HCT-15 colon) was > 100 µM and the TGI (UACC-257 melanoma) was > 100 µM. The TGI (K-562 leukemia) was > 56.6 µM, the TGI (NCI-H226 lung) was > 100 µM and the TGI (SW-620 colon) was > 100 µM. The TGI (SK-MEL-2 melanoma) was > 100 µM, the TGI (KM12 colon) was > 100 µM and the TGI (SNB-75 CNS) was > 100 µM. The TGI (SN12C renal) was > 100 µM, the TGI (SK-MEL-5 melanoma) was > 100 µM and the TGI (U251 CNS) was > 100 µM. The TGI (SNB-19 CNS) was > 100 µM, the TGI (DMS 273 small cell lung) was > 100 µM and the TGI (NCI-H23 lung) was > 100 µM. For the same molecule, the TGI (SK-OV-3 ovarian) was > 100 µM, the TGI (RPMI-8226 leukemia) was 42.2 µM and the TGI (HOP-18 NSCLC) was > 100 µM. For the same molecule, the TGI (IGROV1 ovarian) was > 100 µM, the TGI (HCC-2998 colon) was > 100 µM and the TGI (DMS 114 small cell lung) was > 100 µM. The TGI (CCRF-CEM leukemia) was > 56.6 µM, the TGI (OVCAR-3 ovarian) was > 86.6 µM and the TGI (CAKI-1 renal) was > 100 µM. For the same molecule, the TGI (LXFL 529 NSCLC) was > 100 µM, the TGI (KM20L2 colon) was > 100 µM and the TGI (M14 melanoma) was > 100 µM. The TGI (DLD-1 colon) was > 33.6 µM, the TGI (SNB-78 CNS) was > 100 µM and the TGI (RXF 393 renal) was 98.5 µM. For the same molecule, the TGI (A498 renal) was > 100 µM, the TGI (UO-31 renal) was > 100 µM and the TGI (786-0 renal) was > 100 µM. For the same molecule, the TGI (EKVX NSCLC) was > 100 µM, the TGI (OVCAR-4 ovarian) was > 100 µM and the TGI (HCT-116 colon) was > 100 µM. The TGI (SK-MEL-28 melanoma) was > 100 µM, the TGI (MOLT-4 leukemia) was > 100 µM and the TGI (A549 NSCLC) was > 100 µM. For the same molecule, the TGI (SF-295 CNS) was > 100 µM, the TGI (HL-60(TB) leukemia) was > 52.1 µM and the TGI (COLO 205 colon) was > 100 µM. For the same molecule, the TGI (OVCAR-5 ovarian) was > 100 µM, the TGI (SF-268 CNS) was > 100 µM and the TGI (RXF-631 renal) was > 100 µM. For the same molecule, the TGI (TK-10 renal) was > 100 µM, the TGI (HOP-92 NSCLC) was > 100 µM and the TGI (HOP-62 NSCLC) was 71.1 µM. For the same molecule, the TGI (OVCAR-8 ovarian) was > 100 µM, the TGI (M19-MEL melanoma) was > 100 µM and the TGI (XF 498 CNS) was > 100 µM. The TGI (LOX IMVI melanoma) was > 82.8 µM, the TGI (HT29 colon) was > 100 µM and the TGI (ACHN renal) was > 100 µM.
In the case of `CC(=O)c1cccc(NC(=O)C(=O)C(C(=O)NN)c2ccccc2)c1` (stereo not given), the TGI (NCI-H460 lung) is reported as > 100 µM, the TGI (NCI-H522 lung) is reported as > 100 µM and the TGI (UACC-62 melanoma) is reported as > 100 µM. The TGI (MALME-3M melanoma) was > 100 µM, the TGI (HCT-15 colon) was > 100 µM and the TGI (UACC-257 melanoma) was > 100 µM. The TGI (K-562 leukemia) was > 100 µM, the TGI (NCI-H226 lung) was > 100 µM and the TGI (SW-620 colon) was > 100 µM. The TGI (SK-MEL-2 melanoma) was > 100 µM, the TGI (KM12 colon) was > 100 µM and the TGI (SNB-75 CNS) was > 100 µM. The TGI (SN12C renal) was > 100 µM, the TGI (SK-MEL-5 melanoma) was > 100 µM and the TGI (U251 CNS) was > 100 µM. For the same molecule, the TGI (SNB-19 CNS) was > 100 µM, the TGI (DMS 273 small cell lung) was > 100 µM and the TGI (NCI-H23 lung) was > 100 µM. The TGI (SK-OV-3 ovarian) was > 100 µM, the TGI (RPMI-8226 leukemia) was > 100 µM and the TGI (HOP-18 NSCLC) was > 100 µM. The TGI (IGROV1 ovarian) was > 100 µM, the TGI (HCC-2998 colon) was > 100 µM and the TGI (DMS 114 small cell lung) was > 100 µM. The TGI (CCRF-CEM leukemia) was > 100 µM, the TGI (OVCAR-3 ovarian) was > 100 µM and the TGI (CAKI-1 renal) was > 100 µM. For the same molecule, the TGI (LXFL 529 NSCLC) was > 100 µM, the TGI (KM20L2 colon) was > 100 µM and the TGI (M14 melanoma) was > 100 µM. For the same molecule, the TGI (DLD-1 colon) was > 100 µM, the TGI (RXF 393 renal) was > 100 µM and the TGI (A498 renal) was > 100 µM. The TGI (UO-31 renal) was > 100 µM, the TGI (786-0 renal) was > 100 µM and the TGI (EKVX NSCLC) was > 100 µM. For the same molecule, the TGI (OVCAR-4 ovarian) was > 100 µM, the TGI (HCT-116 colon) was > 100 µM and the TGI (SK-MEL-28 melanoma) was > 100 µM. For the same molecule, the TGI (MOLT-4 leukemia) was > 100 µM, the TGI (A549 NSCLC) was > 100 µM and the TGI (COLO 205 colon) was > 100 µM. For the same molecule, the TGI (OVCAR-5 ovarian) was > 100 µM, the TGI (SF-539 CNS) was > 100 µM and the TGI (SF-268 CNS) was > 100 µM. The TGI (RXF-631 renal) was > 100 µM, the TGI (TK-10 renal) was > 100 µM and the TGI (HOP-92 NSCLC) was > 100 µM. The TGI (HOP-62 NSCLC) was > 100 µM, the TGI (OVCAR-8 ovarian) was > 100 µM and the TGI (M19-MEL melanoma) was > 100 µM. For the same molecule, the TGI (XF 498 CNS) was > 100 µM, the TGI (LOX IMVI melanoma) was > 100 µM and the TGI (HT29 colon) was > 100 µM. The TGI (ACHN renal) was > 100 µM.
In the case of `[O-][n+]1c2cc3c(cc2[n+]([O-])c2c(O)cccc21)CN(CCN1CCOCC1)C3`, the TGI (NCI-H460 lung) is reported as 28.1 µM, the TGI (NCI-H522 lung) is reported as 19 µM and the TGI (UACC-62 melanoma) is reported as 74.7 µM. For the same molecule, the TGI (MALME-3M melanoma) was > 100 µM, the TGI (HCT-15 colon) was > 100 µM and the TGI (UACC-257 melanoma) was 87.2 µM. The TGI (K-562 leukemia) was 54.2 µM, the TGI (NCI-H226 lung) was > 100 µM and the TGI (SK-MEL-2 melanoma) was 53 µM. For the same molecule, the TGI (KM12 colon) was 31.8 µM, the TGI (SNB-75 CNS) was > 100 µM and the TGI (SN12C renal) was > 100 µM. For the same molecule, the TGI (SK-MEL-5 melanoma) was > 100 µM, the TGI (U251 CNS) was 28.7 µM and the TGI (SNB-19 CNS) was > 100 µM. The TGI (DMS 273 small cell lung) was > 100 µM, the TGI (NCI-H23 lung) was 71 µM and the TGI (SK-OV-3 ovarian) was 58.9 µM. For the same molecule, the TGI (RPMI-8226 leukemia) was 71.7 µM, the TGI (HOP-18 NSCLC) was > 100 µM and the TGI (IGROV1 ovarian) was 39.5 µM. For the same molecule, the TGI (DMS 114 small cell lung) was 25.4 µM, the TGI (CCRF-CEM leukemia) was 47 µM and the TGI (OVCAR-3 ovarian) was 50.8 µM. The TGI (CAKI-1 renal) was > 100 µM, the TGI (LXFL 529 NSCLC) was 62.1 µM and the TGI (KM20L2 colon) was > 100 µM. The TGI (M14 melanoma) was > 100 µM, the TGI (SNB-78 CNS) was > 100 µM and the TGI (RXF 393 renal) was 42.4 µM. The TGI (A498 renal) was > 100 µM, the TGI (UO-31 renal) was 40.9 µM and the TGI (786-0 renal) was > 100 µM. For the same molecule, the TGI (EKVX NSCLC) was 68 µM, the TGI (OVCAR-4 ovarian) was > 100 µM and the TGI (HCT-116 colon) was 33.2 µM. For the same molecule, the TGI (SK-MEL-28 melanoma) was > 100 µM, the TGI (MOLT-4 leukemia) was 26.9 µM and the TGI (A549 NSCLC) was > 100 µM. The TGI (SR leukemia) was 7.83 µM, the TGI (SF-295 CNS) was 40 µM and the TGI (HL-60(TB) leukemia) was 36.8 µM. For the same molecule, the TGI (COLO 205 colon) was 30.5 µM, the TGI (OVCAR-5 ovarian) was > 100 µM and the TGI (SF-268 CNS) was 60.6 µM. For the same molecule, the TGI (RXF-631 renal) was > 100 µM, the TGI (TK-10 renal) was > 100 µM and the TGI (HOP-92 NSCLC) was 32.3 µM. It also gave a TGI (OVCAR-8 ovarian) of 32.5 µM, a TGI (M19-MEL melanoma) of 49 µM and a TGI (XF 498 CNS) of 33.5 µM. For the same molecule, the TGI (HT29 colon) was 50.2 µM and the TGI (ACHN renal) was 66.9 µM.

Reference: PubChem BioAssay (NCI)
